For assay [1], the system named is PC12 cells. Nature of the assay: Neurite growth on PC12 cells. The format is cell-based. The method, then: Biological Activity of Fragments on PC12 cells: The trypsin digested fragments in various concentrations were tested for neurite growth on PC12 cells. Tissue culture plates having 24 wells were seeded with 10^5 PC12 cells in serum free Dulbeco Modified Eagle's medium (DMEM). The results were read after 96 hours for neurite outgrowth.

The subject of assay [2] is 6 mm ischemic skin wounds. Kind of assay: 6 mm ischemic skin wounds in rat. The format is in vivo. The following applies: 100 μg/ml in hydrogel vehicle once daily; days 7 and 10. The method, then: Natural β-taipoxin and Oxynor peptide-10 were tested against each other in vivo at a concentration of 100 μg/ml in hydrogel vehicle applied once daily to help heal 6 mm ischemic skin wounds in rat. At days 7 and 10 the wounds treated with Oxynor peptide-10 were about 15% smaller in area than the wounds treated with natural β-taipoxin.

For assay [3], the system named is Anti-β-taipoxin. Nature of the assay: Immunological reaction with anti-β-taipoxin. In kind it is binding, mice. From the text: This proves that Oxynor peptide-10 is an integral part of the natural β-taipoxin.
For assay [4], the system named is 4 mm punched wounds. Kind of assay: 4 mm punched wounds on the back of mice. The format is in vivo. The procedure: Experimentally produced 4 mm punched wounds on the back of mice were treated with β taipoxin to compare with Oxynor peptide-10 treatment.
A short description of assay [5]: Mitogenic activity of synthetic constructs (deletion series). The format is cell-based. The following applies: constructs of 5 to 21 amino acids compared. An excerpt:
Several synthetic constructs were made based on portions of this sequence by deleting one amino acid from one terminal at a time. In this manner, several constructs consisting of 5 to 21 amino acids were made and tested for mitogenic activity. […] […] This peptide is designated hereinafter as Oxynor peptide -10.

Where no end group is shown, it is not given here.

As to “KGGSLLNFANLIENDVPIDHM [Oxynor peptide-21]”, the “neurite growth of trypsin digest fragments” value in assay [1] (10^5 PC12 cells, serum free DMEM, read after 96 hours) is “most neurite growth at the lowest concentration”.
As to SLLNFANLIE [Oxynor peptide-10], the “neurite growth on PC12 cells” value in assay [1] (similar concentrations (2 to 5) in serum-free medium) is “produced neurite growth”. In addition, the “wound area smaller than wounds treated with natural β-taipoxin” value in assay [2] is listed as “about 15%”. Moreover, in assay [3], the “immunological reaction with anti-β-taipoxin made in mice” value is “reacted immunologically”. For the same substance, in assay [4] (after six days, PBS controls open), the closure of wounds result is “complete closure of the wounds”. The “histological examination of the skin around the wounds” value in assay [4] (mice, treated wounds) is reported as “epidermis almost like normal skin”. Besides, the mitogenic activity result in assay [5] is reported as “most active”.
Regarding “Ser Leu Leu Asn Phe (SLLNF; SYNTHESIZED. CORRESPONDS TO POSITIONS 4-8 ABOVE.) [Oxynor peptide-5]”, the mitogenic activity entry in assay [5] is listed as “active, but less active”.

Values taken from patent US7129334B2, “Synthetic peptide and uses for same” (priority 2001, dated 2006).
